Reference: patent US20260207568A1, “COMPOSITIONS AND METHODS FOR IMPROVING NEUROLOGICAL DISEASES AND DISORDERS” (CuraSen Therapeutics, Inc., priority 2022, published 2026)
Entries after “also recorded” stand apart in the source; their conditions may differ.

Key:
[1] = Prior CuraSen studies of low-dose nadolol (CST-107) on peripheral β2-AR agonist effects; details: 1 mg nadolol (CST-107), co-administered with 80 μg CST-103
[2] = system: healthy volunteers; test: Peripheral effects of Compound 03-5 (heart rate, glucose, potassium, tachycardia, tremor, palpitations) with nadolol; format: in vivo, human
Method: Data are presented as individual observations for all available subjects.
(§1) On all dosing days, study drug(s) were administered orally after an overnight fast of at least 8 hours.
(§2) Routine measures of ECG, vital signs, safety labs, physical exams and plasma sample collections for analysis of drug pharmacokinetics (PK) were undertaken according to the Schedule of Events (Table 1).
(§3) In Cohort D2, 8 healthy volunteers aged 55-75 years were admitted on Day −1 for a 5-day confinement period at the research facility. […] Subjects remained in-residency until all study procedures are completed on Day 4. • ? Compound 03-5 dose administration. Compound 03-5 was administered as escalating doses on Day 1 (1 mg), Day 2 (3 mg) and Day 3 (10 mg). CANTAB was conducted twice in all subjects on the day prior to start of dosing (Day −1) to familiarize subjects with the platform, and prior to dosing and approximately 3 hours after Compound 03-5 administration on Days 1, 2, and 3.

[3] = system: healthy volunteers and subjects with MCI or PD; details: in vivo
Method: (§5) Safety and tolerability were evaluated by questioning for adverse events (AEs), triplicate 12-lead ECGs, laboratory safety tests on urine and blood with multiple chemistry panels including potassium, blood glucose levels, vital sign measurements, and physical examinations at regular time-points during the study.

[4] = system: healthy volunteers and subjects with MCI or PD; test: Safety and tolerability (TEAEs, heart rate, blood pressure, labs), Example 6; details: for mean increase in supine heart rate from baseline: no nadolol
Method: as §5

[5] = clinical; details: human, in vivo; for Cmax: po
Excerpt: (§6) Pharmacokinetic (PK) parameters were computed from the individual plasma drug concentrations using a non-compartmental approach.

[6] = system: subjects; test: Visual verbal learning test (VVLT); format: in vivo, human; details: for effect on the VVLT (learning and memory): crossover study, 3 agents plus placebo
Method: Subjects are presented 30 words on a screen, one at a time, for 1 second with a 1-second interval between words over a total of 1 minute. This is repeated in 3 trials. After each trial, subjects are asked to recall as many words as they can. […] Since this was a crossover study, everyone who completed Part A was dosed with the 3 agents plus placebo.

[7] = system: healthy volunteers; test: Heart rate by triplicate ECG, Compound 03-5 with or without nadolol; format: in vivo, human; details: 6 mg Compound 03-5 after pre-administration of 1 mg nadolol
Method: Heart rate was measured by triplicate ECG recordings. Data are presented as means changes from time-matched measures recorded on the day before the first dose of study drug (Day −1).
as §1, §2

[8] = system: healthy volunteers aged 55-75 years; test: CANTAB cognition battery, Cohort D2; format: in vivo, human; details: Compound 03-5 1, 3, 10 mg once daily, 2 h after 3 mg nadolol
Method: Data are presented as mean changes from the within-day pre-dose assessment.
as §3

[9] = system: healthy subjects; test: Cerebral perfusion by ASL MRI after single doses of clenbuterol (Example 3); format: in vivo, human
Method: In a clinical study, healthy subjects were administered doses of clenbuterol ranging from 20 to 160 μg and ASL MRI was conducted prior to and after dosing with an objective to ascertain whether this neuroimaging method enables the detection of a clinically relevant CNS signal.
In a region of interest (ROI) analysis focusing on the hippocampus, which is well understood to be affected in neurodegenerative disorders, a single dose of 80 μg of clenbuterol causes a robust increase in perfusion (see FIG. 7). […] Our hypothesis is that by improving cerebral perfusion, particularly in areas of the brain that are relevant for symptoms that are commonly found in neurodegenerative diseases such as PD and AD, the administration of a β-AR agonist (such as a β-agent) will have a positive effect on clinically relevant symptoms such as memory and cognition.

[10] = ASL MRI cerebral perfusion, CuraSen study CLIN-002; format: in vivo; details: CST-103 80 and 160 μg
Excerpt: (§4) It was hypothesized that by improving cerebral perfusion, particularly in areas of the brain that are relevant for symptoms that are commonly found in PD and MCI, the administration of a β-AR agonist would have a positive effect on clinically relevant symptoms such as memory and cognition.

[11] = system: healthy subjects; test: Adaptive tracking test; format: in vivo, human; details: single dose 160 μg clenbuterol
Excerpt: Adaptive tracking measures visuomotor coordination and vigilance. In this test, the subject uses a joystick to move a small dot so that it stays within a continuously moving circle on a computer screen (Boland 1984). During the test, the speed of the circle is adjusted in response to the subject's ability to keep the dot in the circle, ensuring that the test is adapted to the individual subject. […] The improvement shown by subjects is in the same range as that seen with subjects treated with the acetylcholinesterase inhibitor donepezil, which is in clinical use for the treatment of mild to moderate AD (Groeneveld 2016).

[12] = system: healthy subjects; test: Cognitive performance, CuraSen study CLIN-003; format: in vivo, human; details: daily dose of 80 μg CST-103, healthy subjects, preliminary data
Excerpt: as §4

[13] = system: healthy volunteers; test: Cerebral blood flow by ASL MRI in healthy volunteers (Example 6)
Method: In the 4 cohorts of healthy volunteers, study drug was administered as follows:
All subjects received single oral dose of 20 μg clenbuterol on Day 1, and a single oral dose of 40 μg clenbuterol on Day 8, with ASL MRI scans before and 3 hours after dosing on both days.
All subjects received a single oral dose of 80 μg clenbuterol on Day 1, with ASL MRI scans before, and 3 hours 1 day and 2 days after clenbuterol administration to evaluate the longevity of the ASL MRI signal
ASL MRI scans were conducted before and 3 hours after clenbuterol administration on Day 1 and Day 7.
ASL MRI scans were conducted before and 3 hours after clenbuterol administration on Day 2 and Day 9.
All scans were conducted using pseudo continuous ASL MRI. Only subjects with no contraindications to being in a strong magnetic field were evaluated by MRI. Participants were positioned comfortably and supine in the head coil to minimize any motion during the scan with proper back support, and support under the knees for comfort and to reduce motion in the scan, and the head was centered in the head coil and velcro straps or foam padding were used to reduce motion.
Imaging was performed on a GE Signa PET-MR 3T system.
For accurate quantitative measurements of brain structures a high-resolution T1-weighted, 3D volumetric sequences (e.g., MP-RAGE, IR-FSPGR) in the sagittal plane. Scan parameters of the pCASL sequence were: straight axial/transversal slices, labeling duration=1.8s, post-labeling delay=2.0 s, 15-20 cm slab thickness, pCASL average labeling gradient 1 mT/m, pCASL slice selective labelling gradient 10 mT/m, pASL TI1 (QUIPSS II Saturation Time) 800 ms, pASL labeling slab thickness 15-20 cm, 70 volumes, spatial resolution 3 mm in-plane/5 mm through-plane/gap 1 mm, 3D RARE stack-of-spiral or 3D GRASE 4-15 ms readouts, turbo-factor of 8 to 12; echo train of up to 300 ms, 2D EPI Single shot, minimum echo time, and duration 5 min.
Multiple ROIs were evaluated including whole brain, cortex, subcortical, thalamus, amygdala, hippocampus, and cerebellum which were chosen due to their relevance for cognition or alertness, and the periaqueductal grey for its relevance to motor control. Grey matter (GM) masking was applied for reporting of CBF in the GM of these ROIs.
Regional mean CBF values were extracted for each ROI and subsequently, the CBF for each region was compared before and after administration of clenbuterol.
Baseline/Predose versus Postdose change (%) for each subject and each region was calculated as 100*(Postdose_CBF−Baseline_CBF)/(Baseline_CBF). For each region, the cohort summary of CBF change (=mean relative displacement, MRD) was described by the group mean and standard deviation of the individual CBF changes.

[14] = system: human subjects; test: Cerebral blood flow after a single dose of clenbuterol and/or nadolol, or pindolol (Example 1); format: in vivo
[15] = Plasma pharmacokinetics of clenbuterol and nadolol (Example 6); details: human, in vivo
Excerpt: as §6

[16] = system: subjects with MCI or PD; test: Cerebral blood flow by ASL MRI in subjects with MCI or PD (Example 6); format: in vivo, human; details: for CBF MRD in the hippocampus, repeat dose comparison: 80 μg clenbuterol without nadolol; for CBF mean (±SEM) MRD in hippocampus / CBF mean (±SEM) MRD in whole brain: Day 9, N=4
[17] = doses of 80 and 160 μg clenbuterol
[18] = 80 μg clenbuterol, absence of nadolol
[19] = 80 μg clenbuterol, presence of 1 mg nadolol

SMILES: CC(C)(C)NCC(O)COc1cccc2c1CC(O)C(O)C2 (stereo not drawn) [nadolol]
- attenuation of peripheral β2-AR agonist effects (heart rate, palpitations, tremors, potassium, glucose) [1]: could attenuate these peripheral effects; also recorded: sufficient to inhibit peripheral β2-AR agonist mediated effects
- effect of nadolol on Compound 03-5 increase in heart rate and other peripheral effects (hyperglycemia, hypokalemia) ([2]; Cohort D1, 1 mg nadolol pre-administered, Compound 03-5 orally up to 6 mg): substantially attenuated
- effect of nadolol on peripheral effects of Compound 03-5 (heart rate, glucose, potassium, tachycardia, tremor, palpitations) ([2]; Cohort D1, nadolol 1 mg up to 40 mg pre-administered, Compound 03-5 3-12 mg): blocked the peripheral effects
- effect of nadolol on peripheral effects of Compound 03-5 on heart rate, etc. ([2]; Cohort D2, nadolol 3 mg pre-administered, Compound 03-5 1-10 mg): similarly blocked the peripheral effects
- effects of Compound 03-5 on blood glucose and potassium, tachycardia, tremor and palpitations ([2]; pre-administration of 1 mg nadolol, 6 mg Compound 03-5): Concomitant attenuation
- hypokalemia caused by Compound 03-5 ([2]; subjects dosed with nadolol 1-40 mg, Cohorts D1 and D2): attenuation of hypokalemia
- increase in heart rate after 80 μg clenbuterol [3]: effectively blocked
- TEAEs considered related to nadolol ([4]; all subjects enrolled): No TEAEs
- side effects of β2-agonist (increased heart rate, tremor, palpitations) ([4]; pre-administration of nadolol): mostly eliminated
- half-life [5]: 7 to 13 h
- Cmax ([5]; 1 mg): 1 to 1.5 ng/mL
- Cmax ([5]; 4 mg): 2.8 to 4 ng/mL

SMILES: CC(C)(C)NCC(O)c1ccc(O)c(CO)c1 (stereo not drawn) [salbutamol]
- effect on the VVLT (learning and memory) [6]: positive effects on the VVLT

SMILES: CC(C)(C)NC[C@H](O)c1cccc(C#N)n1 [Compound 03-5, (S)-6-(2-(tert-butylamino)-1-hydroxyethyl)picolinonitrile]
- hypokalemia (blood potassium levels) ([2]; Compound 03-5 monotherapy 0.3 mg-6 mg, Cohorts A1-A5): Dose-dependent increases in hypokalemia
- mean maximum increase in heart rate [7]: 7 beats per minute
- performance in the CANTAB cognition battery [8]: improvements in performance in the CANTAB cognition battery were observed

SMILES: CC(C)NCC(O)COc1cccc2[nH]ccc12 (stereo not drawn) [pindolol]
- effect on the VVLT (learning and memory) [6]: detrimental effect

SMILES: CC(C)(C)NCC(O)c1cc(Cl)c(N)c(Cl)c1 (stereo not drawn) [clenbuterol]
- cerebral perfusion as measured by CBF ([9]; clenbuterol dose of 40 μg): minimal increase
- cerebral perfusion as measured by CBF ([9]; clenbuterol doses below 30 μg): do not produce significant cerebral perfusion increases
- improvements in perfusion in brain areas relevant to neurodegenerative disorders [9, 17]: ~25%
- increases in cerebral perfusion in hippocampus and thalamus [9, 17]: 20% to 25
- increase in hippocampal perfusion, average ([9]; single dose 80 μg clenbuterol, 6 healthy subjects aged 44-52): 25%
- cerebral perfusion (ASL MRI) ([9]; single dose 160 μg clenbuterol, healthy subjects): robust global increase in cerebral perfusion
- cerebral perfusion (ASL MRI) [10]: robust global increase in cerebral perfusion
- increase in cerebral perfusion in the hippocampus [10]: up to 28%
- increase in cerebral perfusion in the thalamus [10]: up to 15%
- performance in adaptive tracking (percent time dot kept within moving circle) [11]: improved adaptive tracking; also recorded: performance in adaptive tracking improves
- cognition as measured by adaptive tracking and word recall ([11]; healthy subjects, preliminary data): improves cognition
- decrease in heart rate from baseline ([4]; 3 hours after 160 μg clenbuterol with pre-administration of 5 mg nadolol): 2.75 bpm
- overall safety and tolerability ([4]; all subjects): overall safe and well tolerated
- severity of TEAEs ([4]; all subjects enrolled): mild-to-moderate
- effects on supine, sitting or standing blood pressure ([4]; clenbuterol in the absence or presence of nadolol): no clinically meaningful effects
- subjects with TEAEs considered related to clenbuterol ([4]; healthy volunteers): 12/25
- mean increase in supine heart rate from baseline ([4]; healthy volunteers, 3 hours after 20 μg clenbuterol): 7.5 bpm
- mean increase in supine heart rate from baseline ([4]; healthy volunteers, 3 hours after 40 μg clenbuterol): 7.5 bpm
- mean increase in supine heart rate from baseline ([4]; healthy volunteers, 3 hours after 80 μg clenbuterol): 9.2-12.38 bpm
- mean increase in supine heart rate from baseline ([4]; healthy volunteers, 3 hours after 160 μg clenbuterol): 30.5 bpm
- increase in heart rate ([4]; subjects with MCI or PD, 80 μg clenbuterol): 10.67-14.65 bpm
- subjects with TEAEs considered related to clenbuterol ([4]; subjects with neurodegenerative disease): 6/8
- effect on the VVLT (learning and memory) [6]: positive effects on the VVLT
- VVLT improvement in correctly recalled words ([6]; immediate and delayed recall, crossover study vs placebo): 1.5 to 2 correctly recalled words
- cognitive performance [12]: improves cognitive performance
- CBF mean (±SEM) percent relative displacement (MRD) from baseline in the hippocampus ([13]; 20 μg clenbuterol, no nadolol (first value of the list)): −1.7±1.3%
- CBF mean SEM MRD from baseline ([13]; 160 μg clenbuterol about 2.5 h after 5 mg nadolol (Day 9)): 14.0±6.5%
- CBF mean (±SEM) percent relative displacement (MRD) from baseline in the hippocampus ([13]; 160 μg clenbuterol in the absence of nadolol): 28.5±4.1%
- CBF by ASL MRI ([13]; 20, 40, 80 and 160 μg clenbuterol, absence of nadolol): dose-dependent increase in CBF
- CBF change from baseline ([13]; 3 hours after single dose of 80 μg clenbuterol): increases in CBF from baseline are evident
- CBF change from baseline ([13]; 24 hours after single dose of 80 μg clenbuterol): decreased but still evident
- CBF change from baseline ([13]; 48 hours after single dose of 80 μg clenbuterol): returned to baseline
- cerebral blood flow (CBF) relative to baseline ([14]; single dose clenbuterol 160 μg): robust global increase in cerebral blood flow (CBF); also recorded: positive increase in cerebral blood flow
- cerebral blood flow (CBF) relative to baseline ([14]; single dose clenbuterol 160 μg and nadolol 5 mg): robust global increase in cerebral blood flow (CBF)
- cerebral blood flow (CBF) relative to baseline ([14]; single dose clenbuterol 30 to 160 μg (nadolol 5 mg in some subjects), tracked 3 days): robust global increase in cerebral blood flow (CBF)
- half-life [15]: 12 to 31 h
- CBF MRD in the hippocampus, repeat dose comparison ([16]; Day 2, 4 subjects): 17.55±6.37%
- CBF MRD in the hippocampus, repeat dose comparison ([16]; Day 9, 4 subjects): 14.72±10.56%
- CBF mean (±SEM) MRD in hippocampus [16, 18]: 14.7±10.6%
- CBF mean (±SEM) MRD in whole brain [16, 18]: 4.8±12.6%
- CBF mean (±SEM) MRD in hippocampus [16, 19]: 12.5±5.7%
- CBF mean (±SEM) MRD in whole brain [16, 19]: 5.9±8.6%
- CBF in multiple brain regions incl. hippocampus and thalamus ([16]; 80 μg clenbuterol, with and without pre-administration of 1 mg nadolol): Significant increases in CBF
